According to patent US20240279236A1, “COMPOUNDS AND METHODS OF TREATING TUBERCULOSIS” (Fimbrion Therapeutics, Inc., priority 2021, published 2024):

Tested on: WT Mtb Erdman strain
Experiment: Microplate Alamar Blue Assay (MABA), Mtb growth inhibition
Type: cell-based, Mycobacterium tuberculosis
Conditions: Mycobacterium tuberculosis, ERDMAN, 168 h, Middlebrook 7H9 media, 7 days at 37° C. in 5% CO2

| Compound | IC50 [nM] |
| --- | --- |
| CCc1nc(NCCCc2cccc(N(C)C)c2)c2cc(C)sc2n1 [Example 253, N-(3-(3-(dimethylamino)phenyl)propyl)-2-ethyl-6-methylthieno[2,3-d]pyrimidin-4-amine] | 1100 |
| CCc1nc(NCCCc2ccc3ncccc3c2)c2cc(C)sc2n1 [Example 254, 2-ethyl-6-methyl-N-(3-(quinolin-6-yl)propyl)thieno[2,3-d]pyrimidin-4-amine] | 1500 |
| CCc1nc(NCCCc2cccc(OC(F)(F)F)c2)c2cc(C)sc2n1 [Example 255, 2-ethyl-6-methyl-N-(3-(3-(trifluoromethoxy)phenyl)propyl)thieno [2,3-d]pyrimidin-4-amine] | 570 |
| CCc1nc(NCCCc2ccc3c(c2)CCO3)c2cc(C)sc2n1 [Example 256, N-(3-(2,3-dihydrobenzofuran-5-yl)propyl)-2-ethyl-6-methylthieno[2,3-d]pyrimidin-4-amine] | 290 |
| CCc1nc(NCCCc2ccc(Cl)cc2)c2cc(C)sc2n1 [Example 257, N-(3-(4-chlorophenyl)propyl)-2-ethyl-6-methylthieno[2,3-d]pyrimidin-4-amine] | 140 |
| CCc1nc(NCCCc2ccc3ccccc3c2)c2cc(C)sc2n1 [Example 258, 2-ethyl-6-methyl-N-(3-(naphthalen-2-yl)propyl)thieno[2,3-d]pyrimidin-4-amine] | 190 |
| CCc1nc(NCCCc2cc(F)cc(C(F)(F)F)c2)c2cc(C)sc2n1 [Example 259, 2-ethyl-N-(3-(3-fluoro-5-(trifluoromethyl)phenyl)propyl)-6-methylthieno[2,3-d]pyrimidin-4-amine] | 560 |
| CCc1nc(NCCCc2ccc(OC)c(F)c2)c2cc(C)sc2n1 [Example 260, 2-ethyl-N-(3-(3-fluoro-4-methoxyphenyl)propyl)-6-methylthieno[2,3-d]pyrimidin-4-amine] | 200 |
| CCc1nc(NCCCc2cc3ccccc3s2)c2cc(C)sc2n1 [Example 261, N-(3-(benzo[b]thiophen-2-yl)propyl)-2-ethyl-6-methylthieno[2,3-d]pyrimidin-4-amine] | 280 |
| Cc1cc2c(NCCCc3ccc(-c4ccc(OC(F)(F)F)cc4)nc3)nc(C(F)(F)F)nc2s1 [Example 262, 6-methyl-N-(3-(6-(4-(trifluoromethoxy)phenyl)pyridin-3-yl)propyl)-2-(trifluoromethyl) thieno[2,3-d]pyrimidin-4-amine;] | 470 |
| Cc1cc2c(NCCCc3ccc(-c4ccc(OC(F)(F)F)cc4)cc3)nc(-c3ccon3)nc2s1 [Example 263, 2-(isoxazol-3-yl)-6-methyl-N-(3-(4′-(trifluoromethoxy)-[1,1′-biphenyl]-4-yl)propyl)thieno [2,3-d]pyrimidin-4-amine] | 13 |
| Cc1cc(-c2nc(NCCCc3ccc(-c4ccc(OC(F)(F)F)cc4)cc3)c3cc(C)sc3n2)no1 [Example 264, 6-methyl-2-(5-methylisoxazol-3-yl)-N-(3-(4′-(trifluoromethoxy)-[1,1′-biphenyl]-4-yl)propyl)thieno [2,3-d]pyrimidin-4-amine] | 40 |
| CCc1nc(NCCCc2ccc(-c3ccccc3)cc2)c2cc(C)sc2n1 [Example 265, N-(3-([1,1′-biphenyl]-4-yl)propyl)-2-ethyl-6-methylthieno[2,3-d]pyrimidin-4-amine] | 150 |
| CCc1nc(NCCCc2ccc(-c3ccc(OC(F)(F)F)cc3)cc2)c2cc(C)sc2n1 [Example 266, 2-ethyl-6-methyl-N-(3-(4′-(trifluoromethoxy)-[1,1′-biphenyl]-4-yl)propyl)thieno [2,3-d]pyrimidin-4-amine] | 49 |
| Cc1cc2c(NCCCc3ccc(-c4ccc(OC(F)(F)F)cc4)cc3)nc(C(F)(F)F)nc2s1 [Example 267, 6-methyl-N-(3-(4′-(trifluoromethoxy)-[1,1′-biphenyl]-4-yl)propyl)-2-(trifluoromethyl)-thieno[2,3-d]pyrimidin-4-amine] | 300 |
| Cc1cc2c(NCCCc3ccc(-c4ccccc4)cc3)nc(C(F)(F)F)nc2s1 [Example 268, N-(3-([1,1′-biphenyl]-4-yl)propyl)-6-methyl-2-(trifluoromethyl) thieno[2,3-d]pyrimidin-4-amine] | 1200 |
| CCc1nc(NCCCc2cccc(-c3ccc(OC(F)(F)F)cc3)c2)c2cc(C)sc2n1 [Example 269, 2-ethyl-6-methyl-N-(3-(4′-(trifluoromethoxy)-[1,1′-biphenyl]-3-yl)propyl)thieno [2,3-d]pyrimidin-4-amine] | 1100 |
| CCc1nc(NCCCc2cccc(-c3ccccc3)c2)c2cc(C)sc2n1 [Example 270, N-(3-([1,1′-biphenyl]-3-yl)propyl)-2-ethyl-6-methylthieno[2,3-d]pyrimidin-4-amine] | 520 |
| CCc1nc(NCCCc2ccc(-c3ccncc3)cc2)c2cc(C)sc2n1 [Example 271, 2-ethyl-6-methyl-N-(3-(4-(pyridin-4-yl)phenyl)propyl) thieno[2,3-d]pyrimidin-4-amine] | 350 |

| Compound | IC50 [nM] |
| --- | --- |
| CCc1nc(NCCCc2ccc(-c3ccc(S(C)(=O)=O)cc3)cc2)c2cc(C)sc2n1 [Example 272, 2-ethyl-6-methyl-N-(3-(4′-(methylsulfonyl)-[1,1′-biphenyl]-4-yl)propyl)thieno [2,3-d]pyrimidin-4-amine] | 270 |
| CCc1nc(NCCCc2ccc(-c3ccc(Cl)cc3)cc2)c2cc(C)sc2n1 [Example 273, N-(3-(4′-chloro-[1,1′-biphenyl]-4-yl)propyl)-2-ethyl-6-methylthieno[2,3-d]pyrimidin-4-amine] | 38 |
| CCc1nc(NCCCc2ccc(-c3ccc(OC)cc3)cc2)c2cc(C)sc2n1 [Example 274, 2-ethyl-N-(3-(4′-methoxy-[1,1′-biphenyl]-4-yl)propyl)-6-methylthieno[2,3-d]pyrimidin-4-amine] | 76 |
| CCc1nc(NCCCc2ccc(-c3cccnc3)cc2)c2cc(C)sc2n1 [Example 275, 2-ethyl-6-methyl-N-(3-(4-(pyridin-3-yl)phenyl)propyl) thieno[2,3-d]pyrimidin-4-amine] | 180 |
| CCc1nc(NCCCc2ccc(-c3ccc(F)c(F)c3)cc2)c2cc(C)sc2n1 [Example 276, N-(3-(3′,4′-difluoro-[1,1′-biphenyl]-4-yl)propyl)-2-ethyl-6-methylthieno[2,3-d]pyrimidin-4-amine] | 930 |
| CCc1nc(NCCCc2ccc(-c3ccc(NS(C)(=O)=O)cc3)cc2)c2cc(C)sc2n1 [Example 277, N-(4′-(3-((2-ethyl-6-methylthieno[2,3-d]pyrimidin-4-yl)amino)propyl)-[1,1′-biphenyl]-4-yl)methanesul-fonamide] | 630 |
| CCc1nc(NCCCc2ccc(-c3ccc(=O)[nH]c3)cc2)c2cc(C)sc2n1 [Example 278, 5-(4-(3-((2-ethyl-6-methylthieno[2,3-d]pyrimidin-4-yl)amino)propyl)phenyl)pyridin-2(1H)-one] | 710 |
| CCc1nc(NCCCc2ccc(-c3ccc(NC(C)=O)cc3)cc2)c2cc(C)sc2n1 [Example 279, N-(4′-(3-((2-ethyl-6-methylthieno[2,3-d]pyrimidin-4-yl)amino)propyl)-[1,1′-biphenyl]-4-yl)acetamide] | 1100 |
| CCc1nc(NCCCc2ccc(-c3cccc(OC(F)(F)F)c3)cc2)c2cc(C)sc2n1 [Example 280] | 140 |
| CCc1nc(NCCCc2ccc(-c3ccc(Cl)c(Cl)c3)cc2)c2cc(C)sc2n1 [Example 281, N-(3-(3′,4′-dichloro-[1,1′-biphenyl]-4-yl)propyl)-2-ethyl-6-methylthieno[2,3-d]pyrimidin-4-amine] | 44 |
| Cc1cc2c(NCCCc3ccc(-c4ccc(Cl)cc4)cc3)nc(C(F)(F)F)nc2s1 [Example 282, N-(3-(4′-chloro-[1,1′-biphenyl]-4-yl)propyl)-6-methyl-2-(trifluoromethyl) thieno[2,3-d]pyrimidin-4-amine] | 130 |
| CCc1nc(NCCCc2ccc(-c3cccc(S(C)(=O)=O)c3)cc2)c2cc(C)sc2n1 [Example 283, 2-ethyl-6-methyl-N-(3-(3′-(methylsulfonyl)-[1,1′-biphenyl]-4-yl)propyl)thieno [2,3-d]pyrimidin-4-amine] | 3200 |
| CCc1nc(NCCCc2ccc(-c3cccc(C(=O)NC)c3)cc2)c2cc(C)sc2n1 [Example 284, 4′-(3-((2-ethyl-6-methylthieno[2,3-d]pyrimidin-4-yl)amino)propyl) N-methyl-[1,1′-biphenyl]-3-carboxamide] | 2900 |
| Cc1cc2c(NCCCc3ccc(-c4ccc(OC(F)(F)F)cc4)cc3)nc(-c3ccc(OC(F)(F)F)cc3)nc2s1 [Example 285, 6-methyl-N-(3-(4′-(trifluoromethoxy)-[1,1′-biphenyl]-4-yl)propyl)-2-(4-(trifluoromethoxy)phenyl)thieno [2,3-d]pyrimidin-4-amine] | > 10000 |
| Cc1cc2c(NCCCc3ccc(-c4ccc(OC(F)(F)F)cc4)cc3)nc(-c3ccccn3)nc2s1 [Example 286, 6-methyl-2-(pyridin-2-yl)-N-(3-(4′-(trifluoromethoxy)-[1,1′-biphenyl]-4-yl)propyl)thieno [2,3-d]pyrimidin-4-amine] | 130 |
| Cc1cc2c(NCCCc3ccc(-c4ccc(F)c(F)c4)cc3)nc(C(F)(F)F)nc2s1 [Example 287, N-(3-(3′,4′-difluoro-[1,1′-biphenyl]-4-yl)propyl)-6-methyl-2-(trifluoromethyl) thieno[2,3-d]pyrimidin-4-amine] | 190 |
| COc1ccc(-c2ccc(CCCNc3nc(C(F)(F)F)nc4sc(C)cc34)cc2)cc1 [Example 288, N-(3-(4′-methoxy-[1,1′-biphenyl]-4-yl)propyl)-6-methyl-2-(trifluoromethyl) thieno[2,3-d]pyrimidin-4-amine] | 310 |
| CSc1nc(NCCCc2ccc(-c3ccc(OC(F)(F)F)cc3)cc2)c2cc(C)sc2n1 [Example 289, 6-methyl-2-(methylthio)-N-(3-(4′-(trifluoromethoxy)-[1,1′-biphenyl]-4-yl)propyl)thieno [2,3-d]pyrimidin-4-amine] | 8 |
| Cc1cc2c(NCCCc3ccc(-c4ccc(Cl)c(Cl)c4)cc3)nc(C(F)(F)F)nc2s1 [Example 290, N-(3-(3′,4′-dichloro-[1,1′-biphenyl]-4-yl)propyl)-6-methyl-2-(trifluoromethyl) thieno[2,3-d]pyrimidin-4-amine] | 390 |
